{"source": "patent US20100184677A1", "about": "“USE OF THE HUMAN PANCREATIC POLYPEPTIDE AS A THERAPEUTIC AGENT” (priority 2007, published 2010)", "system": "drug-resistant Mycobacterium tuberculosis", "details": "peptide 10 micrograms per ml, seven days", "data": [{"smiles": "CC[C@H](C)[C@H](NC(=O)[C@H](Cc1ccc(O)cc1)NC(=O)[C@H](CCCNC(=N)N)NC(=O)[C@H](CCCNC(=N)N)NC(=O)[C@H](CC(C)C)NC(=O)[C@H](CC(=O)O)NC(=O)[C@H](C)NC(=O)[C@H](C)NC(=O)[C@H](Cc1ccc(O)cc1)NC(=O)[C@H](CCC(N)=O)NC(=O)[C@H](C)NC(=O)[C@H](CCSC)NC(=O)[C@H](CCC(N)=O)NC(=O)[C@H](CCC(=O)O)NC(=O)[C@@H]1CCCN1C(=O)[C@@H](NC(=O)[C@H](C)NC(=O)[C@H](CC(N)=O)NC(=O)[C@H](CC(=O)O)NC(=O)CNC(=O)[C@@H]1CCCN1C(=O)[C@H](Cc1ccc(O)cc1)NC(=O)[C@@H](NC(=O)[C@@H]1CCCN1C(=O)[C@H](CCC(=O)O)NC(=O)[C@H](CC(C)C)NC(=O)[C@@H]1CCCN1C(=O)[C@H](C)N)C(C)C)[C@@H](C)O)C(=O)N[C@@H](CC(N)=O)C(=O)N[C@@H](CCSC)C(=O)N[C@@H](CC(C)C)C(=O)N[C@H](C(=O)N[C@@H](CCCNC(=N)N)C(=O)N1CCC[C@H]1C(=O)N[C@@H](CCCNC(=N)N)C(=O)N[C@@H](Cc1ccc(O)cc1)C(N)=O)[C@@H](C)O", "note": "[Pancreatic polypeptide]", "values": [{"measurement": "% inhibition", "value": 0.0, "unit": "%"}]}]}
